Assay results reported in patent US7666873B2, “N-phenyl-(2R,5S)dimethylpiperazine derivative” (Astellas Pharma Inc., priority 2002, dated 2010).
Where a name gives a salt, the structure may show the parent alone. Read-outs that look alike come from different tables or passages of the source.

Key:
[1] = test system: ventral prostate of mature male rat; experiment: Prostate gland reducing action toward mature male rat; assay type: in vivo; details: 360 h; oral, once a day for 15 days, male Wistar rat, ventral prostate wet weight, linear regression
Method: 3. Prostate Gland Reducing Action Toward Mature Male Rat
To a male 9-10 weeks old Wistar rat, the compound of the present invention suspended in a 0.5% methylcellulose solution was orally administered once a day continuously for 15 days. After 6 hours from the final administration, the wet weight of its ventral prostate was measured and a prostate gland reducing of the compound of the present invention was investigated.
The prostate gland reducing of the compound of the present invention was calculated according to the following formula using a group to which the compound of the present invention was administered as a test group and a group to which only methylcellulose was administered as a control group. Lessening ratio (%)=100(B−A)/B
A: Wet weight of ventral prostate in test group
B: Wet weight of ventral prostate in control group
From the lessening ratio determined in the above, an ED50 value was calculated by the linear regression method.

human androgen receptor [2] = biological target: T1, human androgen receptor (Homo sapiens, UniProt P10275); experiment: Transcription activation inhibitory action toward human androgen receptor (antagonistic action), MMTV luciferase reporter in CHO cells; assay type: cell-based
T1 construct: expressed in transfected cells
T1 sequence (P10275 1-920): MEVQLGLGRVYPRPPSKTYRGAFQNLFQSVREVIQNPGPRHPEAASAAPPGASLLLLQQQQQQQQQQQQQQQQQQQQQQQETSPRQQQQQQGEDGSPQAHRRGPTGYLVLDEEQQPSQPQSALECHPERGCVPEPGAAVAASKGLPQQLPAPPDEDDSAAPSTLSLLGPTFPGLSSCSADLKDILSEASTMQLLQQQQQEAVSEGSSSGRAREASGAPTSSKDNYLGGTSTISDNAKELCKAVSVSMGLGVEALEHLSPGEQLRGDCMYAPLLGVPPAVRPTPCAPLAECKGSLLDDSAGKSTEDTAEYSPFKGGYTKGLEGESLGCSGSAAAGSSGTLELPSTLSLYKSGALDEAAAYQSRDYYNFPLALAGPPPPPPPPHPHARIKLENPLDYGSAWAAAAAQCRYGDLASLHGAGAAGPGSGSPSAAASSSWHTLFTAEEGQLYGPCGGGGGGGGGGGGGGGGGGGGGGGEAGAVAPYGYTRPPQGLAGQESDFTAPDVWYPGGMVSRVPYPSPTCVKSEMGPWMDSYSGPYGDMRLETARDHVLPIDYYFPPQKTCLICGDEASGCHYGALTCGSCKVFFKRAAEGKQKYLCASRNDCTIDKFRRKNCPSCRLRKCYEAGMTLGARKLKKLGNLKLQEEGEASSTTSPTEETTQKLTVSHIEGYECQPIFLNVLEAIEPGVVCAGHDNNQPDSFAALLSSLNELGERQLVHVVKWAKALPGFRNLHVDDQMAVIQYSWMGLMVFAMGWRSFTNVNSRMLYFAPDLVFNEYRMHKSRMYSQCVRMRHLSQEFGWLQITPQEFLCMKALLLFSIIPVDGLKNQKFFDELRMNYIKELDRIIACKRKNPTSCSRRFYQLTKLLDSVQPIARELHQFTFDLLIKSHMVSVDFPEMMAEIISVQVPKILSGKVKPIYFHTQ
Method: b) Evaluation of Transcription Activation Inhibitory Action Toward Human Androgen Receptor (Antagonistic Action)
CHO/MMTV stable transformant cells and CHO/SV40 stable transformant cells were each inoculated to a 96-well luminoplate for cell culture in an amount of 2×10^4 cells. After 6 to 8 hours, each of the compounds of the present invention was added together with DHT (final concentration of 0.3 nM). After about 18 hours from the addition of the compound, 20 μl of a solution containing 1% triton-X and 10% glycerin was added thereto to dissolve the cells and 100 μl of a luciferase substrate solution containing 0.47 mM luciferin was further added thereto. Then, emitted light intensity was measured using a luminometer, the intensity being regarded as luciferase activity obtained by MMTV-LTR transcription activation due to androgen receptor and nonspecific activation of SV40 promoter transcription.
The transcription activation inhibitory action of the compound of the present invention was calculated according to the following equation as an inhibitory ratio to the transcription activity induced by 0.3 nM DHT. Inhibitory ratio (%)=100(I′−X′)/(I′−B)
I′: (MMTV luciferase activity)/(SV40 luciferase activity) in the case that 0.3 nM DHT is only added
B: (MMTV luciferase activity)/(SV40 luciferase activity) without treatment
X′: (MMTV luciferase activity)/(SV40 luciferase activity) in the case that the compound of the present invention is added together with 0.3 nM DHT
IC50 was determined from the concentration of the compound of the present invention at which the inhibitory ratio calculated by the above method reached 50%.

human androgen receptor [3] = biological target: T1, human androgen receptor; experiment: Transcription activating action toward human androgen receptor (agonistic action), MMTV luciferase reporter in CHO cells; assay type: cell-based; details: ratio to transcription activity induced by 1 nM DHT; CHO/MMTV and CHO/SV40 stable transformants
Method: 1. Transcription Activation Regulatory Action Toward Human Androgen Receptor
Acquisition of Human Androgen Receptor-Expressing, Stable Transformant of MMTV Reporter Gene, and Stable Transformant of SV40 Reporter Gene
CHO cells were seeded on a dish for cell culture having a diameter of 100 mm in an amount of 1×10^6 cells. After 12 to 18 hours, a human androgen receptor-expressing plasmid, MMTV-LTR luciferase reporter plasmid (also inclusive of neomycin resistant gene) co-precipitated with calcium phosphate was added thereto to effect transfection. […]
CHO/MMTV stable transformant cells and CHO/SV40 stable transformant cells were each seeded to a 96-well luminoplate for cell culture in an amount of 2×10^4 cells/well. […] Then, emitted light intensity was measured by means of a luminometer, the intensity being regarded as luciferase activity obtained by MMTV-LTR transcription activation due to human androgen receptor and nonspecific activation of SV40 promoter transcription.
The transcription activating action of the compound of the present invention was calculated according to the following equation as a ratio to the transcription activity induced by 1 nM DHT. […]

## COc1cc(N2C[C@@H](C)N(C(=O)Nc3ccc(C(F)(F)F)nc3)C[C@@H]2C)ccc1C#N (as salt: salt) [Example 3-15, (2R,5S)-4-(4-cyano-3-methoxyphenyl)-2,5-dimethyl-N-(6-trifluoromethyl-3-pyridyl)piperazine-1-carboxamide]
other
  melting point: 211 to 212 °C

## C[C@@H]1CN(c2ccc(C#N)c(Br)c2)[C@@H](C)CN1C(=O)Nc1ccc(C(F)(F)F)nc1 (as salt: salt) [Example 3-23, (2R,5S)-4-(3-bromo-4-cyanophenyl)-2,5-dimethyl-N-(6-trifluoromethyl-3-pyridyl)piperazine-1-carboxamide]
other
  melting point: 216 to 218 °C

## C[C@@H]1CN(c2ccc(C#N)c(Cl)c2)[C@@H](C)CN1C(=O)Nc1cnc(C2CC2)nc1 [Example 3-9, (2R,5S)-4-(3-chloro-4-cyanophenyl)-N-(2-cyclopropylpyrimidin-5-yl)-2,5-dimethylpiperazine-1-carboxamide]
[1]
  ED50: 4.5 mg/kg

## C[C@@H]1CN(c2ccc(C#N)c(Cl)c2)[C@@H](C)CN1C(=O)Nc1ccc(C#N)nc1 [Example 3-12, (2R,5S)-4-(3-chloro-4-cyanophenyl)-N-(6-cyano-3-pyridyl)-2,5-dimethylpiperazine-1-carboxamide]
[1]
  ED50: 1.7 mg/kg
Human androgen receptor [2]
  IC50: 40 nM
Human androgen receptor [3]
  agonistic induction ratio: ≤ 1%

## COc1cc(N2C[C@@H](C)N(C(=O)Nc3ccc(C(F)(F)F)nc3)C[C@@H]2C)ccc1C#N [Example 3-15, (2R,5S)-4-(4-cyano-3-methoxyphenyl)-2,5-dimethyl-N-(6-trifluoromethyl-3-pyridyl)piperazine-1-carboxamide]
[1]
  ED50: 4.1 mg/kg
Human androgen receptor [2]; against 0.3 nM DHT, CHO/MMTV and CHO/SV40 stable transformants, read-out: Transcription activation inhibitory action (IC50 nM)
  IC50: 130 nM

## C[C@@H]1CN(c2ccc(C#N)c(Br)c2)[C@@H](C)CN1C(=O)Nc1ccc(C(F)(F)F)nc1 [Example 3-23, (2R,5S)-4-(3-bromo-4-cyanophenyl)-2,5-dimethyl-N-(6-trifluoromethyl-3-pyridyl)piperazine-1-carboxamide]
[1]
  ED50: 1.1 mg/kg
Human androgen receptor [2]
  IC50: 53 nM

## C[C@@H]1CN(c2ccc(C#N)c(C(F)(F)F)c2)[C@@H](C)CN1C(=O)Nc1cnc(C2CC2)nc1 [Example 3-30, (2R,5S)-4-(4-cyano-3-trifluoromethylphenyl)-N-(2-cyclopropylpyrimidin-5-yl)-2,5-dimethylpiperazine-1-carboxamide]
[1]
  ED50: 3.9 mg/kg
Human androgen receptor [2]
  IC50: 68 nM
